Experimental findings from paper PMC4459817, “Vasculotide reduces endothelial permeability and tumor cell extravasation in the absence of binding to or agonistic activation of Tie2” (EMBO Molecular Medicine, 2015) are described below.

The test system of experiment [1] is human microvascular ECs of lung blood vessel origin (HMVEC-LBl). Kind of experiment: modified Boyden chamber, thrombin-stimulated FITC-dextran permeability, HMVEC-LBl. Format: cell-based. The following applies: VT 10–20 ng/mL, Ang1 200–400 ng/mL, 30 min pretreatment, FITC fluorescence ex/em 490/520 nm, n = 3–5 inserts, unpaired t-test, Fig1A. Here is the method:
(§1) ECs were first treated with Vasculotide (VT), PBS (vehicle/negative control), Ang1 (positive control), PEG-Cys (polyethylene glycol backbone), T7c (non-PEGylated CHHHRHSF peptides), or VT in the presence of 100-fold molar excess of T7c. The concentrations used, 10–20 ng/mL VT and 200–400 ng/mL Ang1, are estimated molar equivalents (0.71–1.43 nM). Thirty minutes later, ECs were stimulated with thrombin, 0.1% BSA (vehicle/negative control), or EDTA (positive control). Another 30mins later, the amount of FITC-dextran diffusion into the lower chambers (A, D) provides a measure of endothelial permeability. CMTPX-labeled tumor cells (TCs) were then dispensed into inserts, and the amount of TC fluorescence emitting from the underside of insert membranes after 20 h (B–C) or 28 h (E) reflects the efficiency of trans-endothelial TC migration. […] Three experiments (twice with HMVEC-LBl and once with HMVEC-DBl) were run with n = 3–5 inserts (independent biological replicates) per group and analyzed by two-sampled unpaired t-tests. […]
(§2) Endothelial cells (ECs) were grown on cell culture inserts with uncoated 8-μm-pore PET filter membranes to 100% confluency. […] After 30 min of thrombin stimulation or 4–6 h of TC-CM stimulation, FITC fluorescence (ex/em = 490/520 nm) was measured from a 50 μl sample of the lower chamber media. […]

The test system of experiment [2] is CMPTX-labeled tumor cells across HMVEC-LBl. Nature of the experiment: modified Boyden chamber, trans-endothelial tumor cell migration, HMVEC-LBl. The class given is cell-based, human. The following applies: 20 h, Fig1B, C. The method, then:
as §1, §2

As for “CHHHRHSF [Vasculotide, 4-armed maleimide-functionalized polyethylene glycol (PEG) backbone to link together four cysteine-capped T7 peptides, that is, CHHHRHSF]”, the “transendothelial permeability of FITC-dextran” value in experiment [1] is on record as “counteract thrombin-stimulated increases in transendothelial permeability of FITC-dextran (P < 0.05”. In addition, the “thrombin-stimulated migration of CMTPX-labeled TCs” value in experiment [2] is listed as “trends of reducing thrombin-stimulated migration”.

B1: recombinant human Ang1 (rhAng1) (ligand, UniProt Q15389 16-498, looked up)
chain: HIGCSNQRRSPENSGRRYNRIQHGQCAYTFILPEHDGNCRESTTDQYNTNALQRDAPHVEPDFSSQKLQHLEHVMENYTQWLQKLENYIVENMKSEMAQIQQNAVQNHTATMLEIGTSLLSQTAEQTRKLTDVETQVLNQTSRLEIQLLENSLSTYKLEKQLLQQTNEILKIHEKNSLLEHKILEMEGKHKEELDTLKEEKENLQGLVTRQTYIIQELEKQLNRATTNNSVLQKQQLELMDTVHNLVNLCTKEGVLLKGGKREEEKPFRDCADVYQAGFNKSGIYTIYINNMPEPKKVFCNMDVNGGGWTVIQHREDGSLDFQRGWKEYKMGFGNPSGEYWLGNEFIFAITSQRQYMLRIELMDWEGNRAYSQYDRFHIGNEKQNYRLYLKGHTGTAGKQSSLILHGADFSTKDADNDNCMCKCALMLTGGWWFDACGPSNLNGMFYTAGQNHGKLNGIKWHYFKGPSYSLRSTTMMIRPLDF
notes: angiopoietin-1, human, recombinant; also called angiopoietin-1; source: bought: R&D Systems (named for the Boyden chamber experiments)
Regarding B1, the “transendothelial permeability of FITC-dextran” value in experiment [1] is reported as “counteract thrombin induction of trans-endothelium macromolecular permeability”. Also, in experiment [2], the “thrombin-stimulated migration of CMTPX-labeled TCs” value is “counteract thrombin induction of trans-endothelium macromolecular permeability and tumor cell migration”.
